# US9828350B2, “5,6-dihydro-2H-[1,4]oxazin-3-yl-amine derivatives useful as inhibitors of beta-secretase (BACE)” (Janssen Pharmaceutica NV, priority 2010, dated 2017)
# Counter-ions that a name gives are not always drawn.
# How the values were obtained:
# Abeta 1-42 = experiment: Cellular αLisa assay in SKNBE2 cells, Abeta 1-42; format: cell-based, human; conditions: incubated for 18 hours; for IC50: Homo sapiens, SKNBE2, 18 h, read-out: Cellular αLisa assay in SKNBE2 cells Abeta 42 pIC50 (converted)
# In short: (§1)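 Human neuroblastoma SKNBE2 cells expressing wild-type hAPP695 were incubated with compound for 18 hours. Secreted Abeta total and Abeta 1-42 in medium were quantified by sandwich αLisa: biotinylated AbN/25 on streptavidin donor beads with Ab4G8 (total) or cAb42/26 (1-42) acceptor beads. Light emission read after 1 hour (ex 650 nm, em 615 nm).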
# [1] = biological target: recombinant BACE1 protein (Homo sapiens, UniProt P56817); experiment: Biochemical FRET based assay; conditions: recombinant BACE1 1 μg/ml, 120 minutes at room temperature, pH 5.0; for IC50: read-out: Biochemical FRET based assay pIC50 (converted)
# In short: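 Recombinant BACE1 (1 μg/ml final) was incubated 120 minutes at room temperature with […] Mca/Dnp-labelled 13-mer APP Swedish-mutant peptide in 40 mM citrate pH 5.0, 0.04% PEG, 4% DMSO, with or without compound. Cleavage was measured as fluorescence (ex 320/em 405 nm), given as RFU difference between T120 and T0.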
# Aβ42 = experiment: Demonstration of in vivo efficacy, brain Aβ42 lowering (ELISA); conditions: mouse brain
# Description: (§2) To determine whether acute administration of an Aβ42 peptide lowering agent would reduce Aβ peptide levels in vivo, non-transgenic rodents, e.g. mice or rats were used. Animals treated with the Aβ peptide lowering agent were examined and compared to those untreated or treated with vehicle and brain levels of soluble Aβ42 and total Aβ were quantitated by standard techniques, for example, using ELISA.
# (§3) A typical protocol for measuring Aβ42 lowering in vivo is shown but it is only one of many variations that could be used to optimize the levels of detectable Aβ. For example, Aβ peptide lowering compounds were formulated in 20% hydroxypropyl 3 cyclodextrin. The Aβ peptide lowering agents were administered as a single oral dose (p.o.) or a single subcutaneous dose (s.c.) to overnight fasted animals. After a certain time, usually 2 or 4 h (as indicated in Table 19), the animals were sacrificed and Aβ42 levels were analysed.
# (§4) Blood was collected by decapitation and exsanguinations in EDTA-treated collection tubes. Blood was centrifuged at 1900 g for 10 minutes (min) at 4° C. and the plasma recovered and flash frozen for later analysis. The brain was removed from the cranium and hindbrain. The cerebellum was removed and the left and right hemisphere were separated. The left hemisphere was stored at −18° C. for quantitative analysis of test compound levels. The right hemisphere was rinsed with phosphate-buffered saline (PBS) buffer and immediately frozen on dry ice and stored at −80° C. until homogenization for biochemical assays.
# (§5) Mouse brains from non-transgenic animals were resuspended in 8 volumes of 0.4% DEA (diethylamine)/50 mM NaCl containing protease inhibitors (Roche-11873580001 or 04693159001) per gram of tissue, e.g. for 0.158 g brain, add 1.264 ml of 0.4% DEA. All samples were homogenized in the FastPrep-24 system (MP Biomedicals) using lysing matrix D (MPBio #6913-100) at 6 m/s for 20 seconds. Homogenates were centrifuged at 221.300×g for 50 min. The resulting high speed supernatants were then transferred to fresh eppendorf tubes. Nine parts of supernatant were neutralized with 1 part 0.5 M Tris-HCl pH 6.8 and used to quantify Aβtotal and Aβ42.
# (§6) To quantify the amount of Aβtotal and Aβ42 in the soluble fraction of the brain homogenates, Enzyme-Linked-Immunosorbent-Assays were used. Briefly, the standards (a dilution of synthetic Aβ1-40 and Aβ1-42, Bachem) were prepared in 1.5 ml Eppendorf tube in Ultraculture, with final concentrations ranging from 10000 to 0.3 pg/ml. The samples and standards were co-incubated with HRPO-labelled N-terminal antibody for Aβ42 detection and with the biotinylated mid-domain antibody 4G8 for Aβtotal detection. […] The plate was allowed to incubate overnight at 4° C. in order to allow formation of the antibody-amyloid complex. Following this incubation and subsequent wash steps the ELISA for Aβ42 quantification was finished by addition of Quanta Blu fluorogenic peroxidase substrate according to the manufacturer's instructions (Pierce Corp., Rockford, Ill.). A reading was performed after 10 to 15 min (excitation 320 nm/emission 420 nm).
# Abeta total = experiment: Cellular αLisa assay in SKNBE2 cells, Abeta total; format: cell-based, human; conditions: incubated for 18 hours; for IC50: Homo sapiens, SKNBE2, 18 h, read-out: Cellular αLisa assay in SKNBE2 cells Abetatotal pIC50 (converted)
# In short: as §1
# Aβtotal = experiment: Demonstration of in vivo efficacy, brain Aβtotal lowering (ELISA); conditions: mouse brain
# Description: as §2, §3, §4, §5, §6
# For Aβtotal detection, a Streptavidine-Peroxidase-Conjugate was added, followed 60 min later by an additional wash step and addition of Quanta Blu fluorogenic peroxidase substrate according to the manufacturer's instructions (Pierce Corp., Rockford, Ill.). A reading was performed after 10 to 15 min (excitation 320 nm/emission 420 nm).
# Sequence of recombinant BACE1 protein (P56817 46-501): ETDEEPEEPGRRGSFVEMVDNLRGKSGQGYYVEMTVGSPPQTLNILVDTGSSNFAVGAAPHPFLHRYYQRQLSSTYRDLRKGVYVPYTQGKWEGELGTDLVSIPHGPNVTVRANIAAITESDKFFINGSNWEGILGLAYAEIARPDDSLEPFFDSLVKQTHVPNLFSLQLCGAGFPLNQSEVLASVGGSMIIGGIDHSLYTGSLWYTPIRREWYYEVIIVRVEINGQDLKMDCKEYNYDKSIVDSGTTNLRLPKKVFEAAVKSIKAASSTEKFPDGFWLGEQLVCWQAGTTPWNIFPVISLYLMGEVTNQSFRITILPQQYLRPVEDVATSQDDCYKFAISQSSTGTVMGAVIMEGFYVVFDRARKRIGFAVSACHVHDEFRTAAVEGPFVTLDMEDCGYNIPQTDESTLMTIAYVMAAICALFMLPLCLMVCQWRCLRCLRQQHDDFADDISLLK
IC50 (Abeta 1-42) [nM],IC50 [1] [nM],IC50 (Abeta total) [nM],Cellular αLisa assay in SKNBE2 cells Abeta 42 pIC50 (Abeta 1-42),Cellular αLisa assay in SKNBE2 cells Abetatotal pIC50 (Abeta total),Structure (SMILES),"Aβ42 (% Ctrl)_Mean (Aβ42; 30 mpk, s.c., 4 h) [% Ctrl]","Aβtotal (% Ctrl)_Mean (Aβtotal; 30 mpk, s.c., 4 h) [% Ctrl]","Aβ42 (% Ctrl)_Mean (Aβ42; 30 mpk, s.c., 2 h) [% Ctrl]","Aβtotal (% Ctrl)_Mean (Aβtotal; 30 mpk, s.c., 2 h) [% Ctrl]",further results
1480,24000,1020,,,"CC1(c2cccc(-c3ccccc3)c2)COCC(N)=N1 (racemic) [Compound 1, rac-5-biphenyl-3-yl-5-methyl-5,6-dihydro-2H-1,4-oxazin-3-amine trifluoroacetate salt]",102,97,,,
> 10000,3470,8510,,,"CC1(c2cccc(NC(=O)c3ccc(Cl)cn3)c2)COC(F)(C(F)(F)F)C(N)=N1 (racemic) [Compound 9, rac-N-{3-[5-amino-6-fluoro-3-methyl-6-(trifluoromethyl)-3,6-dihydro-2H-1,4-oxazin-3-yl]phenyl}-5-chloropyridine-2-carboxamide]",87,101,,,melting point: 193.3 °C
,,,7.49,7.56,CC1(c2cccc(NC(=O)c3ccc(C(F)(F)F)cn3)c2)COCC(N)=N1 (racemic) [Compound 14],107,116,,,Biochemical FRET based assay pIC50 [1]: 6.28
,,,6.44,6.417,CC1(c2cc(-c3cncnc3)c(F)cc2F)COCC(N)=N1 (racemic) [Compound 59],,,114,95,Biochemical FRET based assay pIC50 [1]: 5.36
214,2040,178,,,"COc1cncc(-c2cccc(C3(C)COCC(N)=N3)c2)c1 (single isomer, unassigned) [Compound 8]",92,98,,,melting point: 79.5 °C
,,,7.91,7.88,"CC1(c2cccc(NC(=O)c3ccc(C#N)cn3)c2)COCC(N)=N1 (single isomer, unassigned) [Compound 50]",,,,,"Biochemical FRET based assay pIC50 [1]: 6.93; Aβ42 (% Ctrl)_Mean (Aβ42; 5 mpk, s.c., 4 h): 133 % Ctrl; Aβtotal (% Ctrl)_Mean (Aβtotal; 5 mpk, s.c., 4 h): 95 % Ctrl"
,11200,,6.46,6.43,"CC1(c2cccc(-c3cncnc3)c2)N=C(N)COC1F (single isomer, unassigned) [Compound 96]",116,104,,,
,437,,6.59,6.55,"CC1(c2cccc(-c3cncnc3)c2)N=C(N)COC1(F)C(F)(F)F (single isomer, unassigned) [Compound 117]",,,95,86,
,,,8.21,8.2,"CC1(c2cc(NC(=O)c3ccc(C#N)cn3)ccc2F)N=C(N)COC1F (single isomer, unassigned) [Compound 124]",,,,,"Aβ42 (% Ctrl)_Mean (Aβ42; 30 mpk, p.o., 4 h): 23 % Ctrl; Aβtotal (% Ctrl)_Mean (Aβtotal; 30 mpk, p.o., 4 h): 25 % Ctrl"
,36.3,,8.06,8.09,"CC1(c2cc(NC(=O)c3ncc(Cl)cc3Cl)ccc2F)N=C(N)COC1F (single isomer, unassigned) [Compound 126]",27,32,,,"Aβ42 (% Ctrl)_Mean (Aβ42; 30 mpk, p.o., 4 h): 26 % Ctrl; melting point: 94.6 °C; Aβtotal (% Ctrl)_Mean (Aβtotal; 30 mpk, p.o., 4 h): 31 % Ctrl"
,363,,7.05,7.06,"CC1(c2cccc(-c3cncc(C#N)c3)c2)N=C(N)COC1C(F)(F)F (single isomer, unassigned) [Compound 204]",113,103,,,
,,,6.68,6.66,C[C@@]1(c2cccc(-c3cc(Cl)cc(Cl)c3)c2)COCC(N)=N1 [Compound 52],,,68,114,Biochemical FRET based assay pIC50 [1]: 6.06
10.7,,10.5,,,COc1cnc(C(=O)Nc2ccc(F)c([C@@]3(C)N=C(N)CO[C@@H]3F)c2)cn1 [Compound 123],,,,,"Aβ42 (% Ctrl)_Mean (Aβ42; 10 mpk, p.o., 4 h): 38 % Ctrl; Aβ42 (% Ctrl)_Mean (Aβ42; 10 mpk, s.c., 4 h): 24 % Ctrl; Aβtotal (% Ctrl)_Mean (Aβtotal; 10 mpk, p.o., 4 h): 38 % Ctrl; Aβtotal (% Ctrl)_Mean (Aβtotal; 10 mpk, s.c., 4 h): 21 % Ctrl"
7.59,34.7,7.59,,,C[C@]1(c2cc(NC(=O)c3ncc(Cl)cc3Cl)ccc2F)N=C(N)CO[C@H]1C(F)(F)F [Compound 167],,,,,"Aβ42 (% Ctrl)_Mean (Aβ42; 30 mpk, p.o., 2 h): 95 % Ctrl; melting point: 214.23 °C; Aβtotal (% Ctrl)_Mean (Aβtotal; 30 mpk, p.o., 2 h): 78 % Ctrl"
16.6,14.8,17,,,"N#Cc1ccc(C(=O)Nc2cccc([C@@]3(C4CC4)N=C(N)CO[C@@]3(F)C(F)(F)F)c2)nc1 [Compound 199, (2S,3R)—N-{3-[5-amino-3-cyclopropyl-2-fluoro-2-(trifluoromethyl)-3,6-dihydro-2H-1,4-oxazin-3-yl]phenyl}-5-cyanopyridine-2-carboxamide]",,,64,45,melting point: 196.12 °C
15.5,39.8,13.8,,,C[C@]1(c2cc(NC(=O)c3ncc(C#N)cc3Cl)ccc2F)N=C(N)CO[C@@H]1F [Compound 209],,,,,"Aβ42 (% Ctrl)_Mean (Aβ42; 10 mpk, p.o., 4 h): 6 % Ctrl; Aβtotal (% Ctrl)_Mean (Aβtotal; 10 mpk, p.o., 4 h): 14 % Ctrl"
525,,490,,,COc1cnc(C(=O)Nc2ccc(F)c([C@@]3(C4CC4)N=C(N)CO[C@H]3F)c2)cn1 [Compound 217],,,,,"Aβ42 (% Ctrl)_Mean (Aβ42; 30 mpk, p.o., 2 h): 80 % Ctrl; Aβtotal (% Ctrl)_Mean (Aβtotal; 30 mpk, p.o., 2 h): 73 % Ctrl"
851,126,832,,,N#Cc1cnc(C(=O)Nc2ccc(F)c([C@@]3(C4CC4)N=C(N)CO[C@@H]3F)c2)c(Cl)c1 [Compound 218],,,99,90,
309,93.3,282,,,NC1=N[C@@](c2cc(NC(=O)c3ncc(Cl)cc3F)ccc2F)(C2CC2)[C@@H](F)OC1 [Compound 219],,,95,86,
,,,7.31,7.35,COc1cnc(C(=O)Nc2cccc(C3(C4CC4)N=C(N)COC3C(F)(F)F)c2)cn1 (stereo not shown) [Compound 228],,,,,"Biochemical FRET based assay pIC50 [1]: 6.67; Aβ42 (% Ctrl)_Mean (Aβ42; 30 mpk, p.o., 2 h): 99 % Ctrl; Aβtotal (% Ctrl)_Mean (Aβtotal; 30 mpk, p.o., 2 h): 79 % Ctrl"
